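Following 48 hours of exposure in 96-well plates, responses at five concentrations were used to interpolate endpoints linearly. TGI: total growth inhibition.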
Assays:
Experiment in all cases: DTP human tumour cell line panel, 48 h
MDA-MB-231 breast = tested on: MDA-MB-231 breast
NCI/ADR-RES ovarian = tested on: NCI/ADR-RES ovarian
MDA-N = tested on: MDA-N
OVCAR-5 ovarian = tested on: OVCAR-5 ovarian
OVCAR-8 ovarian = tested on: OVCAR-8 ovarian
HOP-62 NSCLC = tested on: HOP-62 NSCLC
IGROV1 ovarian = tested on: IGROV1 ovarian
CAKI-1 renal = tested on: CAKI-1 renal
NCI-H522 lung = tested on: NCI-H522 lung
RXF 393 renal = tested on: RXF 393 renal
HOP-92 NSCLC = tested on: HOP-92 NSCLC

SMILES | TGI (MDA-MB-231 breast) [µM] | TGI (NCI/ADR-RES ovarian) [µM] | TGI (MDA-N) [µM] | TGI (OVCAR-5 ovarian) [µM] | TGI (OVCAR-8 ovarian) [µM] | TGI (HOP-62 NSCLC) [µM] | TGI (IGROV1 ovarian) [µM] | TGI (CAKI-1 renal) [µM] | TGI (NCI-H522 lung) [µM] | TGI (RXF 393 renal) [µM] | TGI (HOP-92 NSCLC) [µM]
Cc1nc2c(Br)cc(Br)cc2c(=O)n1-c1ccccc1N | > 100 | > 100 | > 100 | > 100 | > 100 | > 100 | > 100 | 96.2 | – | – | –
CC(Nc1cc(Cl)cc(Cl)c1)c1ccncc1 (stereo not given) | – | 63.7 | 45.6 | 32.4 | 43 | 33.5 | 31.8 | 52.4 | 32.6 | 71.3 | –
C=C[C@H]1CN2CC[C@H]1C[C@@H]2[C@@H](O)c1ccnc2ccccc12 | > 100 | > 100 | > 100 | > 100 | > 100 | > 100 | 75.9 | > 100 | > 100 | > 100 | –
CCOC(=O)/C(=C\c1ccc(CO)o1)P(=O)(OCC)OCC | 93.5 | > 100 | 47.8 | > 100 | – | > 100 | > 100 | > 100 | 15.4 | 71.1 | 53.7
COC(=O)c1ccc(OCc2ccc3oc(=O)c(-c4ccccc4)nc3c2)cc1 | – | – | – | > 100 | > 100 | > 100 | – | > 100 | > 100 | – | –
CCCCNC(=S)Nc1nc(C(=O)NNS(=O)(=O)c2ccccc2)cs1 | 68.8 | > 100 | – | > 100 | > 100 | > 100 | > 100 | 69.5 | > 100 | – | > 100
Cc1ccc2[nH]c(=O)c(-c3cnc(=O)[nH]n3)c(O)c2c1 | > 100 | > 100 | > 100 | > 100 | > 100 | > 100 | > 100 | > 100 | – | > 100 | –
CO[P@]1(=O)O[C@@H](c2ccccc2)[C@H](O)[C@]1(O)c1ccccc1 | > 100 | > 100 | > 100 | > 100 | > 100 | – | > 100 | > 100 | > 100 | > 100 | > 100
CN(C)Cc1cc(N=Nc2ccc(Cl)c(Cl)c2)ccc1O | 18.2 | 23.5 | 23.5 | – | 25.5 | 15.3 | 15.9 | 25.4 | 16.2 | 10.7 | 22.3
CC[C@H]1C=CCC[C@@]2(C[C@@H]3CC[C@@H]4[C@H](C(=O)OCCCCCCCCCCCCCCCC(=O)N(CCCN)C[C@@H](O)CCN)[C@]5(CCC[C@@H](C)O5)NC(=[N+]34)N2)O1 | 5.97 | > 10 | 1.14 | 4.39 | 7.13 | 2.94 | > 3.82 | – | 0.573 | 2.38 | 1.01
CC(=O)O[C@H]1/C(=C/c2ccc(N(C)C)cc2)C[C@H]2[C@@H]3CC=C4C[C@@H](N5CCCC5)CC[C@]4(C)[C@H]3CC[C@]12C | > 100 | > 100 | – | > 100 | > 100 | > 100 | > 100 | – | – | > 100 | > 100
COc1ccc(CN=CN/C(C#N)=C(\N)C#N)cc1OC | > 100 | > 100 | > 100 | > 100 | > 100 | > 100 | > 100 | > 100 | > 100 | – | –
O=C(CCCC(=O)N1CC(CCl)c2ccc([N+](=O)[O-])cc21)N1CC(CCl)c2ccc([N+](=O)[O-])cc21 (stereo not given) | > 100 | – | > 100 | > 100 | – | > 100 | – | > 100 | > 100 | > 100 | > 100
Cc1nnc2c3c(-c4ccccc4)c(-c4ccccc4)oc3nc(N(C)C)n12 | > 100 | > 100 | – | > 100 | > 100 | – | > 100 | > 100 | > 100 | > 100 | > 100
COc1ccc(-c2cc(-c3ccc(Nc4ccnc5cc(Cl)ccc45)cc3)nc(N)c2C#N)c2ccccc12 | > 100 | > 100 | > 100 | > 100 | > 100 | > 100 | > 100 | > 100 | > 100 | > 100 | –
COC(=O)C(Cc1ccccc1)NC(=O)CNC(=O)CSc1nnc(COc2ccc(Cl)cc2)n1-c1ccccc1 (stereo not given) | 32.7 | 42 | – | 33.6 | 27.4 | 35.3 | 29.1 | 25.3 | 5.45 | 33.1 | 35.3
COC(=O)c1c(O)ccc2c1c1c(n2C)C(=O)c2ccccc2C1=O | 25.8 | > 100 | – | > 100 | > 100 | 28 | 21.8 | 92.5 | > 100 | 42 | 21
COc1cc(C2c3cc4c(cc3OC(N3CCOCC3)C2C)OCO4)cc(OC)c1O (stereo not given) | > 84.2 | 18.4 | – | > 100 | > 56.7 | 35.5 | > 70.8 | 26.1 | > 20.2 | 85.4 | > 65.3
COc1cccc(-c2cc(=O)c3cc(C)cnc3[nH]2)c1 | > 100 | > 100 | 0.0213 | > 100 | – | > 100 | > 100 | > 100 | – | – | –
C=C(Br)CN(C#N)CC(=C)Br | > 100 | > 100 | > 100 | > 100 | > 100 | > 100 | > 100 | > 100 | > 100 | > 100 | –
Brc1ccc2c(c1)C1=C(CO2)Cc2ccccc2O1 | 30.3 | 58.3 | 27 | 34.8 | 47.6 | 30.3 | 32.7 | 32.3 | 39.8 | – | 31.5
CN(C)c1ccc(/C=C2\N=C(c3ccccc3)N(c3nc4c(Cl)cc(Cl)cc4s3)C2=O)cc1 | > 100 | > 100 | 56.8 | > 100 | > 100 | > 100 | > 100 | > 100 | – | – | > 100
O=C1CC(O)c2c(Cl)sc(Cl)c21 (stereo not given) | > 61.3 | 59.2 | 44.2 | 33 | 14.2 | 29.4 | 22.1 | 9.68 | – | 12.2 | 7.89
